From patent US8501732B2, “Aminomethyl quinolone compounds” (Hoffmann-La Roche Inc., priority 2011, dated 2013)
Structures can show the parent of a compound that is named as a salt.

Legend:
[1] = test system: phospho(Ser63)-c-jun in HK-2 cells; experiment: Cell-Based Assay for JNK Inhibitors (in-cell ELISA, phospho(Ser63)-c-jun after TNFα); settings: HK-2 cells (human proximal tubule cells), 60 minutes compound, then 10 ng/mL TNFα for 30 minutes
Procedure: Cell-Based Assay for JNK Inhibitors
The cell-based assay employed the in-cell ELISA method to determine the ability of compounds to prevent the generation of phospho(Ser63)-c-jun in HK-2 cells (human proximal tubule cells) in response to stimulation with tumor necrosis factor α (TNFα). In brief, for quantification of phospho(Ser63)-c-jun, the cells (in 96-well format) were fixed and permeablized then incubated sequentially with a rabbit anti-phospho-c-jun First Antibody specific for the presence of the phospho-Ser63 epitope and a donkey anti-rabbit IgG Second Antibody linked to horseradish peroxidase (HRP) for colorimetric quantitation of binding. […] Blank wells received no TNFα stimulation or compound. Additional Control wells received TNFα stimulation, but no compound.
Stock cultures of HK-2 cells (ATCC, Manassas, Va.) were grown under a 5% CO2/[…] atmosphere at 37 degrees C. in Keratinocyte-SFM medium (KSFM, Invitrogen, Grand Island, N.Y.) containing 5 μg/L epidermal growth factor and 5 mg/L bovine pituitary extract (both supplied with the medium), additionally supplemented with 10% (v/v) fetal calf serum (FCS; Invitrogen, Grand Island, N.Y.) and 1% (v/v) antibiotic-antimycotic (ABAM: Sigma, St. Louis, Mo.). For assays, cells were seeded in collagen coated 96-well polystyrene plates (BD Biosciences, Franklin Lakes, N.J.) at a density of 40,000 cells/well and cultured for 24 h in the same medium (100 μL/well) followed by a further 16-24 h in 100 μL of similar medium, but without FCS. […] Plates were then allowed to stand at room temperature for 20 minutes before being washed with 200 μL/well of PBS. (Further steps were performed immediately or the plates were stored at 4 degrees C. and the assay completed the next day.) To each well was added 100 μL 1% (v/v) TritonX-100 (Sigma, St. Louis, Mo.) in PBS followed by 20 minutes standing at room temperature, washing with 200 μL/well PBS, the addition of 100 μL/well of Quenching buffer (1% (v/v) hydrogen peroxide (Sigma, St. Louis, Mo.) and 0.1% (w/v) sodium azide (Fisher Scientific, Fair Lawn, N.J.)) in PBS and a further 20 minutes at room temperature. Plates were then washed twice with 200 μL/well of 0.1% (v/v) Tween-20 (Teknova, Hollister, Calif.) in PBS before addition of 200 μL/well of 2% BSA/0.1% Tween-20 in PBS and a further 1 hour at room temperature. […] After a further one hour, rabbit anti-phospho-c-jun-Ser63 is added directly to the solution in the Blank wells resulting in 1:250 dilution of this antibody. Plates were then placed on a slowly rotating platform at 4 degrees C. overnight. Wells were then washed thrice with 200 μL/well PBS/0.1% Tween-20. After addition of the third wash, the plates were placed on a slowly rotating platform for 15 minutes at room temperature. The final PBS/Tween20 wash was then replaced with 100 μL/well of donkey anti-rabbit HRP-labeled Second Antibody (Jackson ImmunoResearch Laboratory, West Grove, Pa.) diluted 1:10,000 in Antibody Dilution Buffer and the plates placed on a slowly rotating platform for 1 hour at room temperature. Wells were then washed four times with 200 μL/well PBS/0.1% Tween-20, including slow rotation for 30 minutes for the third wash and 10 minutes for the final wash. The wells were then washed once with 200 μL PBS without Tween-20. […] Absorbance was determined at a 450 nm wavelength using a spectrophotometer (Molecular Devices SpectraMax 250).

JNK1 = JNK1 (Homo sapiens (Human), UniProt P45983); experiment: In Vitro JNK1 Assay (TR-FRET, phosphorylation of GST-c-Jun); format: biochemical; settings: 0.2 nM active JNK1 kinase, 26.7 nM GST-c-Jun, 2 μM ATP, 30 min at room temperature
Chain of JNK1 (P45983 whole entry, the tested form may be a part): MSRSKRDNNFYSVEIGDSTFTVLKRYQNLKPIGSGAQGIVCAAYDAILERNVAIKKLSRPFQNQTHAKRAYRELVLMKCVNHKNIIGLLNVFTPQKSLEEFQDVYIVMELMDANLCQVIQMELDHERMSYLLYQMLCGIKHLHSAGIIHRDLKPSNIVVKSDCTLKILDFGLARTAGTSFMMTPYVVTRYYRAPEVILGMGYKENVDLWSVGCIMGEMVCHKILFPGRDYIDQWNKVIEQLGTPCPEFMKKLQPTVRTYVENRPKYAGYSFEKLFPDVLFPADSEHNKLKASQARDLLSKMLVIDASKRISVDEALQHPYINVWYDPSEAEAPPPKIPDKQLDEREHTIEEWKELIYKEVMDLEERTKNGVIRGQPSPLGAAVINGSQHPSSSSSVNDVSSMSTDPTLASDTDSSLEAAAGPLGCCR
Method in brief: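 GST-c-Jun (residues 1-79) phosphorylation by JNK1 in 50 mM HEPES pH 7.0, MgCl2, 1 mM DTT, 0.1 mM Na3VO4, 0.2 mg/mL BSA, 30 min at room temperature. Stopped with EDTA plus anti-phospho-c-Jun antibody and read by TR-FRET 1 hr later. IC50 from percent inhibition over 10 serial dilutions.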

`O=C(NCc1c(-c2ncco2)n(-c2ccccc2)c2cc(Cl)ccc2c1=O)c1ccc(N2CCOCC2)nc1` [Example I-3, N-(7-Chloro-2-oxazol-2-yl-4-oxo-1-phenyl-1,4-dihydro-quinolin-3-ylmethyl)-6-morpholin-4-yl-nicotinamide] showed an EC50 [1] of 3100 nM and an IC50 (JNK1) of 9 nM.
`O=C(NCc1cn(-c2ccccc2)c2cc(Cl)ccc2c1=O)c1ccnc(N2CCCC2)c1` [Example I-32, N-(7-Chloro-4-oxo-1-phenyl-1,4-dihydro-quinolin-3-ylmethyl)-2-pyrrolidin-1-yl-isonicotinamide] showed an EC50 [1] of 29000 nM and an IC50 (JNK1) of 38 nM.
Compound `COC(=O)c1c(CNC(=O)c2ccc(S(N)(=O)=O)cc2)c(=O)c2ccc(C(F)(F)F)nc2n1-c1ccccc1` [Example I-154, 4-Oxo-1-phenyl-3-[(4-sulfamoyl-benzoylamino)-methyl]-7-trifluoromethyl-1,4-dihydro-[1,8]naphthyridine-2-carboxylic acid methyl ester] has an EC50 [1] of 9900 nM and an IC50 (JNK1) of 26 nM.
Compound `COC(=O)c1c(CNC(=O)c2cccc(Cl)c2)c(=O)c2ccc(OC)cc2n1-c1ccccc1` [Example I-160, 3-[(3-Chloro-benzoylamino)-methyl]-7-methoxy-4-oxo-1-phenyl-1,4-dihydro-quinoline-2-carboxylic acid methyl ester] has an EC50 [1] of 22000 nM and an IC50 (JNK1) of 26 nM.
`COC(=O)c1c(CNC(=O)c2cccnc2)c(=O)c2ccc(OC)cc2n1-c1ccccc1` [Example I-165, 7-Methoxy-4-oxo-1-phenyl-3-{[(pyridine-3-carbonyl)-amino]-methyl}-1,4-dihydro-quinoline-2-carboxylic acidmethyl ester] showed an EC50 [1] of 100000 nM and an IC50 (JNK1) of 65 nM.
`O=C(NCc1cn(-c2ccccc2)c2cc(Cl)ccc2c1=O)c1ccc(NCCO)nc1` [Example I-77, N-(7-Chloro-4-oxo-1-phenyl-1,4-dihydro-quinolin-3-ylmethyl)-6-(2-hydroxy-ethylamino)-nicotinamide] was tested, and the EC50 [1] was 63000 nM and the IC50 (JNK1) was 47 nM.
With `O=C(NCc1cn(-c2ccccc2)c2cc(Cl)ccc2c1=O)c1ccc(N2CC[C@@H](O)C2)nc1` [Example I-70] the EC50 [1] was 33000 nM and the IC50 (JNK1) was 24 nM.
`COC(=O)c1c(CNC(=O)c2ccc(N3CCOCC3)nc2)c(=O)c2ccc(C(F)(F)F)nc2n1-c1ccccc1` [Example I-152, 3-{[(6-Morpholin-4-yl-pyridine-3-carbonyl)-amino]-methyl}-4-oxo-1-phenyl-7-trifluoromethyl-1,4-dihydro-[1,8]naphthyridine-2-carboxylic acid methyl ester] was tested, and the EC50 [1] was 7800 nM and the IC50 (JNK1) was 18 nM.
With `COC(=O)c1c(CNC(=O)c2cnc(N3CCOCC3)s2)c(=O)c2ccc(Cl)cc2n1-c1ccccc1` [Example I-116, Chloro-3-{[(2-morpholin-4-yl-thiazole-5-carbonyl)-amino]-methyl}-4-oxo-1-phenyl-1,4-dihydro-quinoline-2-carboxylic acid methyl ester] the EC50 [1] was 2200 nM.
`COC(=O)c1c(CNC(=O)c2ccc(F)c(Cl)c2)c(=O)c2ccc(Cl)cc2n1-c1ccccc1` [Example I-141, 7-Chloro-3-[(3-chloro-4-fluoro-benzoylamino)-methyl]-4-oxo-1-phenyl-1,4-dihydro-quinoline-2-carboxylic acid methyl ester] showed an EC50 [1] of 7000 nM and an IC50 (JNK1) of 15 nM.
Compound `CN(C)c1ccc(C(=O)NCc2cn(-c3ccccc3)c3cc(Cl)ccc3c2=O)cn1` [Example I-79, N-(7-Chloro-4-oxo-1-phenyl-1,4-dihydro-quinolin-3-ylmethyl)-6-dimethylamino-nicotinamide] has an EC50 [1] of 46000 nM and an IC50 (JNK1) of 55 nM.
With `COC(=O)c1c(CNC(=O)C2CCN(C(=O)OC(C)(C)C)CC2)c(=O)c2ccc(Cl)cc2n1-c1ccccc1` [Example I-128, 3-{[(1-tert-Butoxycarbonyl-piperidine-4-carbonyl)-amino]-methyl}-7-chloro-4-oxo-1-phenyl-1,4-dihydro-quinoline-2-carboxylic acid methyl ester] the EC50 [1] was 100000 nM and the IC50 (JNK1) was 35 nM.
`COC(=O)c1c(CNC(=O)c2ccc(N3CCOCC3)nc2)c(=O)c2ccc(F)cc2n1-c1ccccc1` [Example I-169, 7-Fluoro-3-{[(6-morpholin-4-yl-pyridine-3-carbonyl)-amino]-methyl}-4-oxo-1-phenyl-1,4-dihydro-quinoline-2-carboxylic acid methyl ester] showed an EC50 [1] of 2400 nM and an IC50 (JNK1) of 4 nM.
Work on `COC(=O)c1c(CNC(=O)c2ccc(Cl)cc2)c(=O)c2ccc(OC)cc2n1-c1ccccc1` [Example I-168, 3-[(4-Chloro-benzoylamino)-methyl]-7-methoxy-4-oxo-1-phenyl-1,4-dihydro-quinoline-2-carboxylic acid methyl ester] yielded an EC50 [1] of 32000 nM and an IC50 (JNK1) of 100 nM.
In the case of `O=C(NCc1cn(-c2ccccc2)c2cc(Cl)ccc2c1=O)c1ccnc(N2CCOCC2)c1` [Example I-31, N-(7-Chloro-4-oxo-1-phenyl-1,4-dihydro-quinolin-3-ylmethyl)-2-morpholin-4-yl-isonicotinamide], the EC50 [1] is reported as 30000 nM and the IC50 (JNK1) is reported as 31 nM.
In the case of `CNC(=O)c1ccc(C(=O)NCc2c(C(=O)OC)n(-c3ccccc3)c3cc(Cl)ccc3c2=O)cc1` [Example I-118, 7-Chloro-3-[(4-methylcarbamoyl-benzoylamino)-methyl]-4-oxo-1-phenyl-1,4-dihydro-quinoline-2-carboxylic acid methyl ester], the EC50 [1] is reported as 3700 nM and the IC50 (JNK1) is reported as 11 nM.
`CNC(=O)C1CCN(c2ccc(C(=O)NCc3cn(-c4ccccc4)c4cc(Cl)ccc4c3=O)cn2)CC1` [Example I-72, 3,4,5,6-Tetrahydro-2H-[1,2′]bipyridinyl-4,5′-dicarboxylic acid 5′-[(7-chloro-4-oxo-1-phenyl-1,4-dihydro-quinolin-3-ylmethyl)-amide]-4-methylamide] showed an EC50 [1] of 100000 nM and an IC50 (JNK1) of 27 nM.
With `CN(C)C(=O)c1c(CNC(=O)c2cnc(N3CCC(CCO)CC3)s2)c(=O)c2ccc(Cl)cc2n1-c1ccccc1` [Example I-27, 7-Chloro-3-[4({2-[4-(2-hydroxy-ethyl)-piperidin-1-yl]-thiazole-5-carbonyl}-amino)-methyl]-4-oxo-1-phenyl-1,4-dihydro-quinoline-2-carboxylic acid dimethylamide] the EC50 [1] was 8000 nM and the IC50 (JNK1) was 82 nM.
`COC(=O)c1c(CNC(=O)c2ccc(-c3noc(C)n3)cc2)c(=O)c2ccc(Cl)cc2n1-c1ccccc1` [Example I-125, 7-Chloro-3-{[4-(5-methyl-[1,2,4]oxadiazol-3-yl)-benzoylamino]-methyl}-4-oxo-1-phenyl-1,4-dihydro-quinoline-2-carboxylic acid methyl ester] showed an EC50 [1] of 18000 nM and an IC50 (JNK1) of 22 nM.
In the case of `COC(=O)c1c(CNC(=O)c2ccc(Cl)c(Cl)c2)c(=O)c2ccc(C(F)(F)F)nc2n1-c1ccccc1` [Example I-159, 3-[(3,4-Dichloro-benzoylamino)-methyl]-4-oxo-1-phenyl-7-trifluoromethyl-1,4-dihydro-[1,8]naphthyridine-2-carboxylic acid methyl ester], the EC50 [1] is reported as 43000 nM and the IC50 (JNK1) is reported as 170 nM.
In the case of `O=C(NCc1cn(-c2ccccc2F)c2cc(F)ccc2c1=O)c1cnn(-c2ccccc2)c1` [Example I-103, 1-Phenyl-1H-pyrazole-4-carboxylic acid [7-fluoro-1-(2-fluoro-phenyl)-4-oxo-1,4-dihydro-quinolin-3-ylmethyl]-amide], the EC50 [1] is reported as 12000 nM.
With `O=C(NCc1cn(-c2ccccc2)c2cc(Cl)ccc2c1=O)c1ccc(N2C[C@@H]3C[C@H]2CN3)nc1` (stereo in doubt) [Example I-89, trifluoroacetate] the EC50 [1] was 31000 nM.
